Patent publication US4766111A, “Lipids with plasmin inhibitory properties” (Trustees of Boston University, priority 1987, dated 1988)
Values joined by “and” are separate entries in the source; they are usually repeats but may differ in a detail not shown here. Equal values may be shown once.

Experiments:
Type in all cases: biochemical
plasmin = plasmin (Homo sapiens, UniProt P00747); experiment: Antiplasmin/plasmin inhibitory activity; conditions: Table 3; for ABSORBANCE: absorbance at 405nm, remaining active plasmin, substrate S-225; for % INHIBITION: by reference to normal human pooled plasma standard curve
Description: Fifty-four different runs were conducted, using various compounds and compositions. […] A standard curve is then constructed, by diluting the pooled plasma, and mixing each dilution with a known plasmin standard. Quantity of active plasmin remaining is measured and this quantity is inversely proportional to antiplasmin activity.

[1] = Test 1: plasmin/plasmin-like activity, cleavage of substrate by the sample; conditions: Table 2
Description: Each fraction was diluted 1:5 in TRIS buffer (50 mM, pH 7.4, I 0.15), and then mixed with the substrate. […] In Test 2, 30 μl of a 1:40 dilution of normal human plasma were used, and in Test 3, 30 µl of […] of pure plasminogen were used. The results, shown as ΔmA/min, represents the average of five readings.

[2] = test system: normal human blood pooled plasma; experiment: Test 2: plasminogen activity, sample incubated with normal human pooled plasma; conditions: Table 2
Description: Following this, the samples, diluted, were incubated with normal human blood pooled plasma, which had been diluted 1:40 in TRIS buffer, in proportions of 1 part fraction to two parts plasma. These combinations were incubated to determine if the fractions had plasminogen activator properties.
(§1) In Test 2, 30 μl of a 1:40 dilution of normal human plasma were used, and in Test 3, 30 µl of […] of pure plasminogen were used. The results, shown as ΔmA/min, represents the average of five readings.

purified plasminogen = purified plasminogen (Homo sapiens, UniProt P00747); experiment: Test 3: plasminogen activatory activity, sample incubated with purified plasminogen
purified plasminogen, sequence (P00747 20-810 limits assumed): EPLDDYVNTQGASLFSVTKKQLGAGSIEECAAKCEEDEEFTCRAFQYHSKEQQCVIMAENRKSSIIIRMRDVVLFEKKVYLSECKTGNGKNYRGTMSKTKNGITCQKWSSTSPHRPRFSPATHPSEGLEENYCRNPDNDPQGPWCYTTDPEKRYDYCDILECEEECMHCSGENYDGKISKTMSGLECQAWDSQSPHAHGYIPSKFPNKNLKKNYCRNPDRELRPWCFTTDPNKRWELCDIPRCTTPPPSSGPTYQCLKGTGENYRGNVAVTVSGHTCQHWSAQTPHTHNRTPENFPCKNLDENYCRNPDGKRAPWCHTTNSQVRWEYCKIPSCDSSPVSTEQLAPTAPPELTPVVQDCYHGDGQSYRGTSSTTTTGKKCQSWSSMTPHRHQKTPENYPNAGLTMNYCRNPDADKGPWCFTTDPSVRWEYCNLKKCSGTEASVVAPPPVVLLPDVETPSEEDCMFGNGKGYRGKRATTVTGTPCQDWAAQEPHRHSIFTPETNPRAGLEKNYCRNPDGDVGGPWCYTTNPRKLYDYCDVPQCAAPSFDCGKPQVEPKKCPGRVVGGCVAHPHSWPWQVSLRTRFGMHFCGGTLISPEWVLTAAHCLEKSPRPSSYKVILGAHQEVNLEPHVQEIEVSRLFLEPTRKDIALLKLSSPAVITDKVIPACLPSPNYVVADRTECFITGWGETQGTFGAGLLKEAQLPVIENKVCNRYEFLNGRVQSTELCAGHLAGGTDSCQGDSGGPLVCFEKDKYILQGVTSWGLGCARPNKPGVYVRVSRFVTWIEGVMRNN
Description: In a third test, each fraction was incubated with purified plasminogen so as to enhance activity, because normal human pooled plasma contains plasma proteins inhibitors.
as §1

[3] = Table I, sample 1:5 dilution, pure plasminogen, average of five readings

Molecule	ABSORBANCE (plasmin)	Plasmin Activity [1]	Plasminogen Activity [2]	Plasminogen Activatory Activity (purified plasminogen; Table 2)	% INHIBITION (plasmin) [%]	Plasminogen Activatory Activity (purified plasminogen; [3])
PHOSPHATIDYL INOSITOL 4-MONOPHOSPHATE	Turbid	–	–	–	–	–
DIGALACTOSYL DIGLYCERIDE [PURIFIED DIGALACTOSYL DIGLYCERIDE]	0.190	0	0	0	0	–
SPHINGOMYELIN	–	–	–	–	18	–
CERAMIDE GALACTOSIDE [PURIFIED CERAMIDE GALACTOSIDE]	0.176 and 0.192	0	0	0	–	–
PURE PLASMINOGEN: purified plasminogen used in Test 3, tested alone	–	–	–	–	–	0 ΔmA/min
CERAMIDE TRIHEXOSIDE [PURIFIED CERAMIDE TRIHEXOSIDE]	0.184	0	0	0	0	–
PHOSPHATIDYL INOSITOL [PURIFIED PHOSPHATIDYL INOSITOL]	0.187	0	0	0	0	–
ACTIVATED PURE PLASMINOGEN: activated pure plasminogen, positive reference in Test 3 (protein, UniProt P00747 20-580; P00747 581-810, looked up, Plasmin) Plasmin heavy chain A: EPLDDYVNTQGASLFSVTKKQLGAGSIEECAAKCEEDEEFTCRAFQYHSKEQQCVIMAENRKSSIIIRMRDVVLFEKKVYLSECKTGNGKNYRGTMSKTKNGITCQKWSSTSPHRPRFSPATHPSEGLEENYCRNPDNDPQGPWCYTTDPEKRYDYCDILECEEECMHCSGENYDGKISKTMSGLECQAWDSQSPHAHGYIPSKFPNKNLKKNYCRNPDRELRPWCFTTDPNKRWELCDIPRCTTPPPSSGPTYQCLKGTGENYRGNVAVTVSGHTCQHWSAQTPHTHNRTPENFPCKNLDENYCRNPDGKRAPWCHTTNSQVRWEYCKIPSCDSSPVSTEQLAPTAPPELTPVVQDCYHGDGQSYRGTSSTTTTGKKCQSWSSMTPHRHQKTPENYPNAGLTMNYCRNPDADKGPWCFTTDPSVRWEYCNLKKCSGTEASVVAPPPVVLLPDVETPSEEDCMFGNGKGYRGKRATTVTGTPCQDWAAQEPHRHSIFTPETNPRAGLEKNYCRNPDGDVGGPWCYTTNPRKLYDYCDVPQCAAPSFDCGKPQVEPKKCPGR Plasmin light chain B: VVGGCVAHPHSWPWQVSLRTRFGMHFCGGTLISPEWVLTAAHCLEKSPRPSSYKVILGAHQEVNLEPHVQEIEVSRLFLEPTRKDIALLKLSSPAVITDKVIPACLPSPNYVVADRTECFITGWGETQGTFGAGLLKEAQLPVIENKVCNRYEFLNGRVQSTELCAGHLAGGTDSCQGDSGGPLVCFEKDKYILQGVTSWGLGCARPNKPGVYVRVSRFVTWIEGVMRNN	–	–	–	–	–	19 ΔmA/min and 18 ΔmA/min
